The nature of data set [1]: Pharmacokinetic evaluation in mice after intragastric administration (plasma concentration by LC/MS/MS). The class given is in vivo. The following applies: mouse, Balb/C female mice, single PO 10 mg/kg. On the procedure:
LC/MS/MS method was used to determine the plasma concentration of the embodiment compound at different time after intragastric administration in mice. Study the pharmacokinetic behavior of the compound in mice and evaluate its pharmacokinetic characteristics.
Methods: A single PK study (PO, 10 mg/kg) was performed on healthy Balb/C female mice (about 20 g) purchased from Beijing Vital River Laboratory Animal Technology Co., Ltd. About 1 hour before administration, a certain amount of drug was weighed and added with 5% DMSO and 95% hydroxypropyl betascyclodextrin (HP-β-CD) solution to form a colorless and clear solution. HP-β-CD solution is a 20% HP-β-CD solution prepared by adding HP-p-CD powder into 0.9% normal saline. Intragastric administration was performed at the dosage volume of 10 mL/kg, and blood was collected through the orbital venous plexus of mice. The blood collection time points were as follows: At 0.25, 0.5, 1.0, 2.0, 4.0, 7.0 and 24.0 hours before and after drug administration, 100 uL whole blood to K2EDTA anticoagulant tubes were taken at each time point, and the collected whole blood samples were centrifuged at 4000 rpm for 10 min. The plasma was separated and stored in the refrigerator at −80° C.
The above plasma samples were added to the pure acetonitrile solution containing the inner target for protein precipitation pre-treatment, centrifugation was performed at 10000 rpm for 10 min, and the supernatant was taken, mixed with water 1:1, and 10 μL to LC-MS/MS was used for detection. The linear range of compounds detected in plasma samples was 1-1000 ng/mL, and the data results were as follows:
The compound of the invention has good pharmacokinetic absorption and obvious pharmacokinetic advantages.

Data set [2] concerns the target T1, CD73 (Calu-6 cells) (Homo sapiens, UniProt P21589).
T1 construct: endogenous in cells; host or cells: Calu-6 cells
T1 sequence (P21589 27-549): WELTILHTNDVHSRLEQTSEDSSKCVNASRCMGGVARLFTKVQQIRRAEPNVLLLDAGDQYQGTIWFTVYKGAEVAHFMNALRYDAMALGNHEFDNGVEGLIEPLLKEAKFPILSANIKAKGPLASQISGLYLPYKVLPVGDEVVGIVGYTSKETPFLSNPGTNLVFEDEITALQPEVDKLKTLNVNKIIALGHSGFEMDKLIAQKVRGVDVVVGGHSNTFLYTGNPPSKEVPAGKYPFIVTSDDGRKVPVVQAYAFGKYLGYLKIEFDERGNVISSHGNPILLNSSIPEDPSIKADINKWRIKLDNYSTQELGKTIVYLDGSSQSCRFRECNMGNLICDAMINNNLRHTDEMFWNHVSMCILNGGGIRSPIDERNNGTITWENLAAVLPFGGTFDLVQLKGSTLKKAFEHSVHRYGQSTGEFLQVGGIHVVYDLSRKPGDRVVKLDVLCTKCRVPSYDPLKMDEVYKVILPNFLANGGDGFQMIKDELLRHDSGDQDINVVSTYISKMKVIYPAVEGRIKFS
Nature of the data set: Enzymatic activity detection at the cellular level (Calu-6 cells, AMP substrate, Cell-titer Glo luminescence). The class given is cell-based. Particulars: enzymatic IC50 at the Calu-6 cell level, 30 min pre-incubation, 120 min at 37° C. As for the experimental part: The Calu-6 cells were digested and re-suspended using TM buffer (25 mM Tris, 5 mM MgCl2, pH 7.5). Calu-6 cell suspension was seeded into 96 well cell culture plate, and the number of cells per well was 2.5×10^4, adding volume of 100 μL/well. Compound solution with gradient concentration was prepared by TM buffer, and 50 μL DMSO solution with different concentration was added into each pore cell. […] Pre-incubated in a shaker at 37° C. for 30 min. Each well was added with 50 μL 800 μM AMP solution. The shaker at 37° C. for 120 min was continued to incubate, then the 96-well plates were centrifuged and 50 μL supernatant was transferred to the new 96-well plates. […] The luminescence value was read by the multi-function enzymatic reader and converted into the inhibition percentage: Inhibition percentage=(1−reading/Max)*100. The “maximum value” was DMSO control. IC50 values were obtained by curve fitting with GraphPad Prism software.

pIC50: −log10 of the molar value.

Consider `Cc1nnc(-c2c[nH]c(=O)[nH]c2=O)cc1[C@H]1C[C@@H]1C(C)C` [Compound D1, reference compound], for which, in data set [1], the AUC is 677 ng·h/mL, the Cmax worked out at 547 ng/mL and the time to peak (Tmax) came to 30 min.

For `O=c1[nH]cc(-c2cc([C@H]3C[C@@H]3c3ccccc3)c(Cl)nn2)c(=O)[nH]1` [Compound 57, 5-(6-chloro-5-((S,2S)-2-phenylcyclopropyl)pyridazin-3-yl)pyrimidine-2,4(1H,3H)-dione], the pIC50 in data set [2] is 8.89. Moreover, in data set [1], the AUC turned out to be 10700 ng·h/mL, the Cmax came out at 5410 ng/mL and the Tmax stood at 30 min.

In data set [2], `C=C[C@H]1C[C@@H]1c1cc(-c2c[nH]c(=O)[nH]c2=O)nnc1Cl` [Compound 13, 5-(6-chloro-5-((1S,2R)-2-vinylcyclopropyl)pyridazin-3-yl)pyrimidine-2,4(1H,3H)-dione] showed a pIC50 of 8.07. Further, in data set [1], the AUC came to 16900 ng·h/mL, the peak level (Cmax) was 10400 ng/mL and the Tmax stood at 30 min.

One may read the AUC as the area under the concentration-time curve, a measure of exposure. As a reminder, the Cmax is the maximum level reached in the sampled fluid or tissue. The term Tmax denotes the time at which the peak concentration occurs. For orientation: pIC50 means −log10 of the IC50, conventionally taken in molar units.

Source of the values: patent publication US20230321100A1, “CD73 INHIBITOR AND APPLICATION THEREOF IN MEDICINE” (BETTA PHARMACEUTICALS CO., LTD, priority 2020, published 2023).
